Measured values reported in patent US11076595B2, “1-(n,n-disubstituted carbamoyl) 4-(substituted sulfonyl)triazolin-5-one derivative, 4-(n,n-disubstituted carbamoyl) 1-(substituted sulfonyl)triazolin-5-one derivative, and herbicide containing said derivative as active ingredient” (HOKKO CHEMICAL INDUSTRY CO., LTD., priority 2017, dated 2021).

How the values were obtained:
Assay type in all cases: in vivo
[1] = system: Echinochloa crus-galli; assay: Test Example 1: herbicidal effect test by soil treatment in paddy field; conditions: 120 g/10a, paddy soil treatment just after sowing, 14 days after treatment
In short: (§1)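 Pre-emergence paddy soil treatment: diluted emulsifiable concentrate, 120 g active ingredient/10 are, applied dropwise into ~3 cm flood water immediately post-sowing. Two replicates; dry-weight-based suppression % vs untreated, day 14, glasshouse.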

[2] = system: Lindernia pyxidaria; assay: as above; conditions: 120 g/10a, paddy soil treatment just after sowing, 14 days after treatment
In short: as §1

[3] = system: Monochoria vaginalis; assay: as above; conditions: 120 g/10a, paddy soil treatment just after sowing, 14 days after treatment
In short: as §1

[4] = system: Scirpus juncoides; assay: as above; conditions: 120 g/10a, paddy soil treatment just after sowing, 14 days after treatment
In short: as §1

[5] = system: Echinochloa crus-galli; assay: Test Example 2: herbicidal effect test by treatment during growing period in paddy field; conditions: treatment 7 days after sowing, 120 g/10a, evaluated 14 days after treatment
In short: (§2)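 Read-out is weed suppression (%), 1 − mean dry weight treated/untreated ×100, taken 14 days after treatment with duplicate plots. Treatment: water-diluted emulsifiable concentrate added dropwise to flooded paddy-soil pots 7 days post-sowing at 120 g active ingredient per 10 are.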

[6] = system: Lindernia pyxidaria; assay: as above; conditions: treatment 7 days after sowing, 120 g/10a, evaluated 14 days after treatment
In short: as §2

[7] = system: Monochoria vaginalis; assay: as above; conditions: treatment 7 days after sowing, 120 g/10a, evaluated 14 days after treatment
In short: as §2

[8] = system: Scirpus juncoides; assay: as above; conditions: treatment 7 days after sowing, 120 g/10a, evaluated 14 days after treatment
In short: as §2

[9] = system: Amaranthus viridis; assay: Test Example 3: herbicidal effect test by soil treatment in upland field; conditions: upland field soil treatment 1 day after sowing; 120 g/10a; evaluated 14 days after treatment
Experimental: (§3) This test was performed with two replications per one formulation concentration plot, and 14 days after the formulation treatments, the weed suppression rate (%) was determined according to the following equation (Math. 1). Weed suppression rate (%)=(1−an average dry weight (g) of plants in treated plots/an average dry weight (g) of plants in untreated plots)×100 [Math. 1]
(§4) A pot having a size of 36 cm^2 was filled with field soil (alluvial soil) and after uniformly mixing the soil of the surface layer of 1 cm with 20 grains of each weed seed of crabgrass, Echinochloa crus-galli, Chenopodium album and Amaranthus viridis, the surface layer was pressed lightly. One day after the sowing, an emulsifiable concentrate prepared according to Formulation Example 5 by using the compound shown in Table 7 below was diluted with water, and the water-diluted formulation was sprayed on the soil surface at a ratio of 100 liter per 10 are. The application rate of the active ingredient, by conversion, corresponded to 120 g per 10 are. Fourteen days after the formulation treatment, the herbicidal effect was evaluated by the same criteria as in Test Example 1.

[10] = system: Chenopodium album; assay: as above; conditions: upland field soil treatment 1 day after sowing; 120 g/10a; evaluated 14 days after treatment
Experimental: as §3, §4

[11] = system: Echinochloa crus-galli; assay: as above; conditions: upland field soil treatment 1 day after sowing; 120 g/10a; evaluated 14 days after treatment
Experimental: as §3, §4

[12] = system: crabgrass; assay: as above; conditions: upland field soil treatment 1 day after sowing; 120 g/10a; evaluated 14 days after treatment
Experimental: as §3, §4

[13] = system: Amaranthus viridis; assay: Test Example 4: herbicidal effect test by foliage treatment in upland field; conditions: upland field foliage treatment 7 days after sowing; 120 g/10a; evaluated 14 days after treatment
Experimental: as §3
as §4, with “Seven days” for “One day”, “8” for “7”

[14] = system: Chenopodium album; assay: as above; conditions: upland field foliage treatment 7 days after sowing; 120 g/10a; evaluated 14 days after treatment
Experimental: as §3
as §4, with “Seven days” for “One day”, “8” for “7”

[15] = system: Echinochloa crus-galli; assay: as above; conditions: upland field foliage treatment 7 days after sowing; 120 g/10a; evaluated 14 days after treatment
Experimental: as §3
as §4, with “Seven days” for “One day”, “8” for “7”

[16] = system: crabgrass; assay: as above; conditions: upland field foliage treatment 7 days after sowing; 120 g/10a; evaluated 14 days after treatment
Experimental: as §3
as §4, with “Seven days” for “One day”, “8” for “7”

Row | SMILES | weed suppression rate, Echinochloa crus-galli [1] [%] | weed suppression rate, Lindemia pyxidaria [2] [%] | weed suppression rate, Monochoria vaginalis [3] [%] | weed suppression rate, Scirpus juncoides [4] [%] | weed suppression rate, Echinochloa crus-galli [5] [%] | weed suppression rate, Lindemia pyxidaria [6] [%] | weed suppression rate, Monochoria vaginalis [7] [%] | weed suppression rate, Scirpus juncoides [8] [%] | herbicidal effect (weed suppression rate), Amaranthus viridis [9] [%] | herbicidal effect (weed suppression rate), Chenopodium album [10] [%] | herbicidal effect (weed suppression rate), Echinochloa crus-galli [11] [%] | herbicidal effect (weed suppression rate), Crabgrass [12] [%] | herbicidal effect (weed suppression rate), Amaranthus viridis [13] [%] | herbicidal effect (weed suppression rate), Chenopodium album [14] [%] | herbicidal effect (weed suppression rate), Echinochloa crus-galli [15] [%] | herbicidal effect (weed suppression rate), Crabgrass [16] [%]
1 | CC(C)N(C(=O)n1ncn(S(=O)(=O)C2CCCCC2)c1=O)c1ccc(F)cc1F [Compound 1-306] | 100 | 100 | 100 | 100 | 100 | 100 | 100 | 90 | 90 | 80 | 80 | 90 | – | – | – | –
2 | CCN(C)S(=O)(=O)n1cnn(C(=O)N(c2ccc(F)cc2F)C(C)C)c1=O [Compound 1-1139] | 100 | 90 | 90 | 90 | 90 | 80 | 80 | 90 | 90 | 80 | 80 | 90 | – | – | – | –
3 | Cc1cc(F)ccc1N(C(=O)n1ncn(S(=O)(=O)C2CCCCC2)c1=O)C(C)C [Compound 1-319] | 100 | 80 | 80 | 100 | 100 | 80 | 90 | 80 | – | – | – | – | 70 | 70 | 70 | 80
4 | CC(C)N(C(=O)n1ncn(S(=O)(=O)C(C)C)c1=O)c1ccc(F)nc1 [Compound 1-242] | – | – | – | – | – | – | – | – | 90 | 80 | 80 | 90 | – | – | – | –
5 | CC(C)N(C(=O)n1ncn(S(=O)(=O)N(C)C)c1=O)c1ccc(Cl)nc1Cl [Compound 1-1136] | 100 | 90 | 90 | 90 | 100 | 90 | 80 | 90 | – | – | – | – | 90 | 80 | 80 | 90
6 | CC(C)N(C(=O)n1ncn(S(=O)(=O)N2CCCCC2)c1=O)c1ccc(F)cc1F [Compound 1-1143] | 90 | 80 | 80 | 90 | 90 | 80 | 80 | 90 | 90 | 80 | 80 | 90 | – | – | – | –
